Data as given in patent US4888174A, “Insecticidal polymeric compositions” (priority 1988, dated 1989).

Test: Absorption rate of chlorpyrifos onto LDPE and ethylene/acrylic acid (EAA) pellets
Type: physicochemical
Settings: 85° C.; for Actual Weight % Chlorpyrifos Found in Copolymer EAA: EAA (Primacor 1430) pellets; for % of Chlorpyrifos Absorbed onto Copolymer EAA: EAA pellets, relative to 0.88% maximum; for Actual Weight % Chlorpyrifos Found in LDPE / % of Chlorpyrifos Absorbed onto LDPE: LDPE pellets; for % of Chlorpyrifos Absorbed onto LDPE: relative to 0.90% maximum
Method: A constant temperature oven is set at 85° C. by using a thermowatch controller and an infrared heat lamp. A wide mouth quart jar containing 247.5 g of 749 low density polyethylene (LDPE) or an equivalent amount of Primacor® 1430 pellets is placed into the oven and left overnight. Primacor® is a copolymer of ethylene/acrylic acid (EAA) containing 9 percent (%) by weight acrylic acid. Two and one-half grams of liquid Dursban® insecticide heated to 50° C. are added to each jar to give a calculated concentration of 1 percent chlorpyrifos in the polymer. The Dursban® insecticide contains 99 percent chlorpyrifos and 1 percent inert ingredients. The jar is shaken initially, returned to the oven, and then removed every 5 minutes and reshaken. A first sample of 10 pellets is taken from the jar after 15 minutes. The pellets are placed on an ice water bath for 1 minute, removed with tweezers and placed into a 50 ml beaker. The pellets are rinsed with 5 mls of acetone to remove excess water. The pellets are rinsed with 5 mls of methylene chloride to remove chlorpyrifos coated on the pellet surface. The solvent is decanted after each rinse and the pellets are dried by blowing nitrogen over them for three minutes. The pellets are weighed on an analytical balance, placed into a 2 ounce bottle and the chlorpyrifos absorbed by the pellets is extracted by shaking the pellets with 20 mls of chloroform on an automatic shaker overnight. The chloroform extract, after appropriate dilution, is measured at 292 nanometers wave length on an ultraviolet (UV) spectrophotometer. The absorbence of the sample extract is compared to a standard curve of absorbence from a known concentration of chlorpyrifos in chloroform. The absorption rate for the Primacor® 1430 pellets is determined in the same manner as the LDPE.

[1] = assumed, based on a time of 180 minutes

Structure (SMILES): CCOP(=S)(OCC)Oc1nc(Cl)c(Cl)cc1Cl [Chlorpyrifos, O,O-diethyl-3,5,6-trichloro-2-pyridyl phosphorothioate]
- Actual Weight % Chlorpyrifos Found in Copolymer EAA (0 minutes): 0.0 Weight %
- Actual Weight % Chlorpyrifos Found in Copolymer EAA (15 minutes): 0.71 Weight %
- Actual Weight % Chlorpyrifos Found in Copolymer EAA (30 minutes): 0.80 Weight %
- Actual Weight % Chlorpyrifos Found in Copolymer EAA (45 minutes): 0.85 Weight %
- Actual Weight % Chlorpyrifos Found in Copolymer EAA (60 minutes): 0.84 Weight %
- Actual Weight % Chlorpyrifos Found in Copolymer EAA (90 minutes): 0.83 Weight %
- Actual Weight % Chlorpyrifos Found in Copolymer EAA (120 minutes): 0.95 Weight %
- Actual Weight % Chlorpyrifos Found in Copolymer EAA (150 minutes): 0.86 Weight %
- Actual Weight % Chlorpyrifos Found in Copolymer EAA (180 minutes): 0.88 Weight %
- % of Chlorpyrifos Absorbed onto Copolymer EAA (0 minutes): 0.0%
- % of Chlorpyrifos Absorbed onto Copolymer EAA (15 minutes): 80.7%
- % of Chlorpyrifos Absorbed onto Copolymer EAA (30 minutes): 90.9%
- % of Chlorpyrifos Absorbed onto Copolymer EAA (45 minutes): 96.6%
- % of Chlorpyrifos Absorbed onto Copolymer EAA (60 minutes): 95.5%
- % of Chlorpyrifos Absorbed onto Copolymer EAA (90 minutes): 94.3%
- % of Chlorpyrifos Absorbed onto Copolymer EAA (120 minutes): 108.0%
- % of Chlorpyrifos Absorbed onto Copolymer EAA (150 minutes): 97.7%
- % of Chlorpyrifos Absorbed onto Copolymer EAA (180 minutes): 100.0%
- Actual Weight % Chlorpyrifos Found in LDPE (0 minutes): 0.0 Weight %
- % of Chlorpyrifos Absorbed onto LDPE (0 minutes): 0.0%
- Actual Weight % Chlorpyrifos Found in LDPE (15 minutes): 0.64 Weight %
- % of Chlorpyrifos Absorbed onto LDPE (15 minutes): 71.1%
- Actual Weight % Chlorpyrifos Found in LDPE (30 minutes): 0.76 Weight %
- % of Chlorpyrifos Absorbed onto LDPE (30 minutes): 84.4%
- Actual Weight % Chlorpyrifos Found in LDPE (45 minutes): 0.86 Weight %
- % of Chlorpyrifos Absorbed onto LDPE (45 minutes): 95.6%
- Actual Weight % Chlorpyrifos Found in LDPE (60 minutes): 0.91 Weight %
- % of Chlorpyrifos Absorbed onto LDPE (60 minutes): 101.1%
- Actual Weight % Chlorpyrifos Found in LDPE (90 minutes): 0.89 Weight %
- % of Chlorpyrifos Absorbed onto LDPE (90 minutes): 98.9%
- Actual Weight % Chlorpyrifos Found in LDPE (120 minutes): 0.92 Weight %
- % of Chlorpyrifos Absorbed onto LDPE (120 minutes): 102.2%
- Actual Weight % Chlorpyrifos Found in LDPE (150 minutes): 1.07 Weight %
- % of Chlorpyrifos Absorbed onto LDPE (150 minutes): 118.9%
- Actual Weight % Chlorpyrifos Found in LDPE (180 minutes): 0.90 Weight %
- % of Chlorpyrifos Absorbed onto LDPE (180 minutes): 100.0%
- maximum absorption by the Copolymer EAA [1]: 0.88 % by weight
- maximum absorption of chlorpyrifos by the LDPE [1]: 0.90 % by weight
